Results: patent US9499484B2, “Indole, indoline derivatives, compositions comprising them and uses thereof” (priority 2012, dated 2016)
Where a name gives a salt, the structure may show the parent alone. Read-outs that look alike come from different tables or passages of the source.

Tests used:
AChE = target: T1, AChE (UniProt P23795); format: biochemical, human or bovine erythrocytes
T1 sequence (P23795 1-613): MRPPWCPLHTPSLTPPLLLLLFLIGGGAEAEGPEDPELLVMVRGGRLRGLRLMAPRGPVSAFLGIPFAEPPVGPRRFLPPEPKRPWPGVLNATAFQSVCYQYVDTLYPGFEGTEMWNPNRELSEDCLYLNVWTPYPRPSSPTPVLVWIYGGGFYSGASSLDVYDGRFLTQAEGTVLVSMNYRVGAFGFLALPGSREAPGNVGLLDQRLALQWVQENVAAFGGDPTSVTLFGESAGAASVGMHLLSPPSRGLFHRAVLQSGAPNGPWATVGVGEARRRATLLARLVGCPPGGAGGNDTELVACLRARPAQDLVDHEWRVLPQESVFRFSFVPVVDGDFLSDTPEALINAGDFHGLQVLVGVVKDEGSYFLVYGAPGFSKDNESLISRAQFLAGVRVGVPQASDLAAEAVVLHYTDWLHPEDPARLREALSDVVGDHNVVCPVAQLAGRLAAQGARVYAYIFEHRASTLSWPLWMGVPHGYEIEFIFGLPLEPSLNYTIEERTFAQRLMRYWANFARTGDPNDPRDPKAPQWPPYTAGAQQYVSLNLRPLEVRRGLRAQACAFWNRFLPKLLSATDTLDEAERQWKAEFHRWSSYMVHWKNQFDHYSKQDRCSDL
Procedure: (§1) B. Measurement of Acetylcholinesterase (AChE) and Butylcholinesterase (BuChE) Inhibition In Vitro
(§2) The enzyme was incubated at 37° C. with 6-10 concentrations of the compounds tested and samples were collected at 15, 30, 60 and 120 min Aliquots were transferred to an Elisa multiscan microplate reader (Labsystems) at 15-60 sec time intervals for the determination of residual AChE activity, with Ascent PC software. […] The % inhibition of AChE by each concentration was calculated by comparison with the activity of the enzyme in the absence of drug. […] BuChE-inhibitory activity was determined as described above using BuChE (Sigma Israel) with butylthiocholine iodide (BuTh) 0.075M as a substrate.

BuChE = target: T2, BuChE (UniProt P81908); format: biochemical, human or equine serum
T2 construct: 120 min incubation; BuChE IC50
Procedure: as §1, §2

TNF-α, RAW 264.7 cells = assay: TNF-α reduction in LPS-stimulated RAW 264.7 macrophages; format: cell-based, mouse
[1] = Radical scavenging, glucose oxidase/luminol luminescence; format: biochemical; conditions: concentration reducing luminescence/radical by 50%; mean ± SD, three independent experiments
Procedure: A. Measurement of Radical Scavenging
A mixture comprising glucose oxidase (GO), luminol, sodium selenite [IV] ([…]) and cobalt [II] (Co^+2) all in Hank's Balance Salt Solution (HBSS) was used (Ginsburg et al, 2004). The production of H2O2 produces a burst of luminescence within 30-60 sec, which lasts for 7-10 min. The luminescence involves oxidation of SEL+5 to it SEL+6 and also the generation of oxidants, which are catalyzed by Co^+2. This method mimics infection and inflammation conditions in which there is an accumulation of several oxidant species. This method provides a source of several radicals. Reduction in luminescence by the compounds is due to their ability to sequester radicals and was measured after addition of several concentrations of each compound. The concentration of each compound that reduced the luminescence by 50% was calculated.

Radical scavenging, Sin1 = format: biochemical; conditions: mean ± SD, three independent experiments
[2] = system: TNF-α, BV2 mouse microglial cells; assay: TNF-α reduction in LPS-stimulated BV2 microglia; format: cell-based; conditions: for Reduction in TNF-α levels, BV2 Microglia range: concentration range, None = no reduction up till 100 nM
Procedure: The BV2 mouse microglial cells were created by infecting primary mouse microglia with v-raf/v-myc oncogen-carrying retrovirus and donated by Dr. Sigal Fleisher—Berkovich (Ben-Gurion University of the Negev). The cells were cultured in RPMI 1640 containing 0.4 mM L-Glutamine, 10% FCS, 100 units/ml penicillin, 100 μg/ml streptomycin and maintained in a humidified incubator at 37° C. with 5% CO2. For measurement of the effect of compounds on the release of NO the cells were seeded in a density of 80,000 cells/ml and confluence of about 60%, and incubated with test compounds (in the absence of FCS) for […] All the medium was removed and fresh medium containing FCS and LPS (10 μg/ml) added and the cells maintained at 37° C. for 24 h. The release of NO into the medium was determined by measurement of nitrite levels using Griess reagent reaction. For measurement of protein levels of cytokines cells were seeded in a density of 80,000 and incubated with test compounds (in the absence of FCS) and then with LPS as described above. The medium was centrifuged and supernatants collected after 6 h for TNF-α (Biolegend) and after 20 h for IL-6 (Biolegend).

[3] = system: ChE (AChE, BuChE) in plasma, muscle, spleen, brain; conditions: after ip and or oral administration in mice
Procedure: E. Acetylcholinesterase (AChE) and Butylcholinesterase (BuChE) Inhibition Ex Vivo
Compounds of the invention or saline were administrated by intraperitoneal (ip) injection or gavage to groups of 6-7 male ICR or Balb C mice (5-6 weeks of age). The mice were sacrificed 15, 30, 60 or 120 min after drug administration and the brain (minus cerebellum), spleen, and muscle were rapidly removed, weighed and put on ice. Blood was also collected in heparinised tubes, centrifuged at 14000 rpm at room temperature for 4 mM to provide plasma. Phosphate buffer pH 7 was added to each tissue to produce concentrations of 1 mg/mL for brain and spleen and 8 mg/mL for muscle. The tissues were homogenised in cold phosphate buffer pH 7 containing 0.1% Triton and centrifuged at 14000 rpm. Aliquots of plasma and the supernatant of all tissues were incubated with AcTh or BuTh and DTNB in phosphate buffer pH 7 and the rate of development of the yellow colour was measured as described above. Enzyme activity was measured for each time and drug concentration and percent inhibition of the AChE or BuChE activity was calculated by comparison with that of control mice injected with saline. Results are represented as p moles acetylthiocholine or butythiocholine hydrolysed/min/gm tissue.

NO, RAW 264.7 cells = assay: NO reduction in LPS-stimulated RAW 264.7 macrophages; format: cell-based, mouse
[4] = Table 2, 120 min incubation, read-out: IC50 AChE 120′
[5] = read-out: IC50 BuChE 120 min; Table 3; 120 min incubation
[6] = Table 3, 120 min incubation, read-out: IC50 AChE 120 min
[7] = Mus musculus, RAW264.7, 6 h, read-out: Reduction in TNF-α levels, RAW Macrophages % peak reduction
[8] = concentration range; None = no reduction up till 100 nM
[9] = Mus musculus, RAW264.7, 24 h, read-out: Reduction in NO levels, RAW Macrophages % peak reduction

Compound: CN(C)C(=O)Oc1cccc2c1CCN2C [AN-619, Dimethyl-carbamic acid 1-methyl-2,3-dihydro-1H-indol-4-yl ester]
- IC50 (AChE; [4]): 3500 nM

Compound: CN(C)C(=O)Oc1cccc2ccn(C)c12 [AN-621, Dimethyl-carbamic acid 1-methyl-1H-indol-7-yl ester]
- IC50 (AChE): 330 nM
- IC50 (AChE; [4]): 300 nM

Compound: CCN(CC)C(=O)Oc1ccc2c(ccn2C)c1 [AN-622, Diethyl-carbamic acid 1-methyl-1H indol-5-yl ester]
- IC50 (AChE; read-out: IC50 AChE 120′): > 500000 nM

Compound: CCN(CC)C(=O)Oc1ccc2c(c1)CCN2C [AN-625, Diethyl-carbamic acid 1-methyl-2,3-dihydro-1H indol-5-yl ester]
- IC50 (AChE; read-out: IC50 AChE 120′): 50000 nM

Compound: CCN(C)C(=O)Oc1cccc2c1c(CCC(=O)OC)cn2C [AN-629, Methyl 3-(4-((ethyl(methyl)carbamoyl)oxy)-1-methyl-1H-indol-3-yl) propanoate]
- IC50 (AChE; [4]): 180000 nM

Compound: CCN(C)C(=O)Oc1ccc2c(c1)C(CCC(=O)OC)CN2 (stereo not shown) [AN-669, 3-(2-(Methoxycarbonyl)ethyl) indolin-5-yl ethylmethylcarbamate]
- IC50 (AChE; [4]): 660000 nM

Compound: CCN(C)C(=O)Oc1ccc2c(c1)NCC2CCC(=O)OC (stereo not shown) [AN-680, 3-(2-(Methoxycarbonyl)ethyl)-1-indoline-6-yl ethylmethylcarbamate hydrochloride]
- IC50 (BuChE; [5]): 3900 nM
- IC50 (AChE; [6]): 55200 nM
- Emax (TNF-α, RAW 264.7 cells; [7]): 34.5 ± 1.6%
- IC50 [1]: 1450 ± 50 nM
- IC50 (Radical scavenging, Sin1): 2360 ± 50 nM
- Reduction in TNF-α levels, BV2 Microglia range [2]: None

Compound: COC(=O)CCC1CNc2cc(O)ccc21 (stereo not shown) [AN-682, Methyl 3-(6-hydroxyindolin-3-yl)propanoate hydrochloride]
- Emax (TNF-α, RAW 264.7 cells; Mus musculus, RAW264.7, 6 h; read-out: Reduction in TNF-α levels, RAW Macrophages % peak reduction): 55 ± 1.3%
- Reduction in TNF-α levels, RAW Macrophages range (TNF-α, RAW 264.7 cells; [8]): 10^−1-100 nM
- IC50 [1]: 1340 ± 10 nM
- IC50 (Radical scavenging, Sin1): 2330 ± 80 nM
- Reduction in TNF-α levels, BV2 Microglia % peak reduction [2]: 17.6 ± 1.3%
- Reduction in TNF-α levels, BV2 Microglia range [2]: 10^−2-100 nM

Compound: COC(=O)CCC1CN(C)c2cccc(OC(=O)N(C)c3ccc(OC)cc3)c21 (stereo not shown) [AN-820, 3-(2-(Methoxycarbonyl)ethyl)-1-methylindolin-4-yl 4-methoxyphenylmethyl carbamate hydrochloride]
- IC50 (BuChE; [5]): > 600000 nM
- IC50 (AChE; [6]): 246000 nM
- IC50 [1]: 15300 ± 10 nM

Compound: CCN(C)C(=O)Oc1cccc2c1C(CCC(=O)OC)CN2 (stereo not shown) [AN-827, 3-(2-(Methoxycarbonyl)ethyl)indolin-4-yl ethylmethylcarbamate hydrochloride]
- ChE inhibition in plasma, muscle, and spleen [3]: inhibited ChE
- IC50 (BuChE; [5]): 300 nM
- Emax (TNF-α, RAW 264.7 cells; [7]): 30 ± 3%
- Reduction in TNF-α levels, RAW Macrophages range (TNF-α, RAW 264.7 cells; [8]): 10^−1-100 nM
- IC50 [1]: 1460 ± 50 nM
- IC50 (Radical scavenging, Sin1): 4550 ± 480 nM
- Reduction in TNF-α levels, BV2 Microglia % peak reduction [2]: 38.5 ± 3.2%
- Reduction in TNF-α levels, BV2 Microglia range [2]: 10^−1-100 nM

Compound: O=C(O)CCC1CNc2cc(O)ccc21 (stereo not shown) [AN-848, 3-(6-Hydroxyindolin-3-yl) propanoic acid hydrochloride]
- IC50 [1]: 2340 ± 20 nM
- IC50 (Radical scavenging, Sin1): 3070 ± 660 nM

Compound: CCN(C)C(=O)Oc1ccc2c(CCC(=O)OCOC(=O)C(C)(C)C)c[nH]c2c1 [AN-860, (3-(6-(Ethyl(methyl)carbamoyloxy)-1H-indol-3-yl)propanotloxy)methyl pivalate]
- ChE inhibition in plasma, muscle, and spleen [3]: inhibited ChE

Compound: CCOC(=O)CCC1CNc2cccc(OC(=O)N(C)CC)c21.O=C(O)CC(O)(CC(=O)O)C(=O)O (stereo not shown) [AN-871, Ethyl 3-(4-(ethyl(methyl)carbamoyloxy)indolinium citrate]
- IC50 (BuChE; [5]): 560 nM
- IC50 (AChE; [6]): 40200 nM

Compound: CCN(C)C(=O)Oc1ccc2c(c1)NCC2CCC(=O)OC.O=C(O)CC(O)(CC(=O)O)C(=O)O (stereo not shown) [AN-878, 6-(Ethyl(methyl)carbamoyloxy)-3-(3-methoxy-3-oxopropyl)indolinium citrate]
- ChE inhibition in plasma, muscle, and spleen [3]: inhibited ChE

Compound: CCN(C)C(=O)Oc1cccc2[nH]cc(CCCN)c12 [AN-910, 3-(4-((Ethyl(methyl)carbamoyl)oxy)-1H-indol-3-yl)propan-1-aminium chloride]
- IC50 (BuChE; [5]): 230 nM
- Emax (NO, RAW 264.7 cells; [9]): 29.3 ± 1.2%

Compound: CCN(C)C(=O)Oc1ccc2c(CCCN)c[nH]c2c1.Cl [AN-911, 3-(6-((Ethyl(methyl)carbamoyl)oxy)-1H-indol-3-yl)propan-1-aminium chloride]
- IC50 (BuChE; [5]): 100 nM
- Emax (NO, RAW 264.7 cells; [9]): 66.6 ± 1.9%
- Reduction in NO levels by at >20%, RAW Macrophages range (NO, RAW 264.7 cells; [8]): 10^−2-100 nM
- IC50 (AChE; read-out: IC50 AChE 120 min): 24000 nM

Compound: CCN(C)C(=O)Oc1cccc2c1CCN2CCC(=O)OC.Cl [AN-1243, Methyl 3-(4-((Ethyl(methyl)carbamoyl)oxy)indolin-1-yl)propanoate Hydrochloride]
- IC50 (BuChE; [5]): 700 nM
- Emax (TNF-α, RAW 264.7 cells; [7]): 20.3 ± 5.4%
- IC50 [1]: 300 ± 10 nM
- IC50 (Radical scavenging, Sin1): 8490 ± 3 nM
- Reduction in TNF-α levels, BV2 Microglia % peak reduction [2]: 18.6 ± 1.0%
- Reduction in TNF-α levels, BV2 Microglia range [2]: 100 nM

Compound: CCN(C)C(=O)Oc1cccc2[nH]cc(CCN(C)C)c12 [AN-1252, 3-(2-(Dimethylamino)ethyl)-1H-indol-4-yl ethyl(methyl)carbamate hydrochloride]
- IC50 (BuChE; read-out: IC50 BuChE 120 min): 110 nM
- Emax (NO, RAW 264.7 cells; Mus musculus, RAW264.7, 24 h; read-out: Reduction in NO levels, RAW Macrophages % peak reduction): 36.4 ± 1.8%

Compound: CCCCN(C)C(=O)Oc1ccc2c(CCC(=O)OC)c[nH]c2c1 [compound 676, 3-(2-(Methoxycarbonyl)ethyl)-1H-indol-6-yl butylmethylcarbamate]
- IC50 (AChE; [4]): 33000 nM

Compound: COC(=O)CCc1c[nH]c2cc(OC(=O)N(C)c3ccc(OC)cc3)ccc12 [compound 683, Methyl 3-(6-((4-methoxyphenyl)(methyl)carbamoyloxy)-1H-indol-3-yl)propanoate]
- IC50 (AChE; [4]): > 800000 nM

Compound: CCN(C)C(=O)Oc1ccc2c(c1)N(CCC(=O)OC)CC2 [compound 1247, Methyl 3-(6-((Ethyl(methyl)carbamoyl)oxy)indolin-1-yl)propanoate hydrochloride]
- IC50 (BuChE; [5]): 6800 nM
- IC50 [1]: 220 ± 40 nM
- IC50 (Radical scavenging, Sin1): 2180 ± 170 nM

Compound: Ethyl 3-(5- ((ethyl(methyl)carbamoyl) oxy)-1H- benzo[d]imidazol-1- yl)propanoate hydrochloride Ethyl 3-(6- ((ethyl(methyl)carbamoyl) oxy)-1H- benzo[d]imidazol-1- yl)propanoate hydrochloride [AN-1257]
- IC50 (BuChE; Table 3; 120 min incubation; read-out: IC50 BuChE 120 min): 110 nM
- Reduction in NO levels, RAW Macrophages % peak reduction (NO, RAW 264.7 cells): 34.5 ± 1.2%
- Reduction in NO levels by at >20%, RAW Macrophages range (NO, RAW 264.7 cells; [8]): 10^−2-1000 nM
